Data: ChEMBL document CHEMBL1146988, “The spermicidal and antitrichomonas activities of SSRI antidepressants” (2006)

Legend:
Spermatozoa = assay: Spermicidal activity against human spermatozoa; assay type: functional
Trichomonas vaginalis = assay: Antitrichomonas activity against Trichomonas vaginalis after 48 hrs; assay type: functional

Row | Compound | MEC (Spermatozoa) | MLC (Trichomonas vaginalis) | MLC50 (Trichomonas vaginalis) | ED50 (Spermatozoa)
1 | CN[C@H]1CC[C@@H](c2ccc(Cl)c(Cl)c2)c2ccccc21.Cl [SERTRALINE HYDROCHLORIDE] | 0.5% | 0.003% | 0.0012% | –
2 | Cl.NCCc1c[nH]c2ccc(O)cc12 [SEROTONIN HYDROCHLORIDE] | >1% | – | – | –
3 | Cl.Cl.Fc1ccc([C@@H]2CCNC[C@H]2COc2ccc3c(c2)OCO3)cc1.Fc1ccc([C@@H]2CCNC[C@H]2COc2ccc3c(c2)OCO3)cc1.O [PAROXETINE HYDROCHLORIDE] | 0.1% | >0.01% | – | 0.008%
4 | CNCCC(Oc1ccc(C(F)(F)F)cc1)c1ccccc1.Cl (stereo unspecified) [FLUOXETINE HYDROCHLORIDE] | – | 0.003% | – | –
5 | COCCCC/C(=N\OCCN)c1ccc(C(F)(F)F)cc1.O=C(O)/C=C\C(=O)O [FLUVOXAMINE MALEATE] | 0.1% | 0.005% | 0.003% | 0.005%
6 | CCCCCCCCCc1ccc(OCCOCCOCCOCCOCCOCCOCCOCCOCCO)cc1 [NONOXYNOL 9] | 0.05% | 0.002% | 0.0009% | 0.01%
